Legend:
[1] = test system: velvetleaf; experiment: Test A postemergence; format: in vivo, Abutilon theophrasti; settings: Postemergence
Summary of the method: (§1)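 Injury readout: eye-scored versus untreated controls, 0 to 100. Exposure period: ~10 days, greenhouse. Application: soil-directed spray over sown seed (pre) or spray on seedlings 2–10 cm tall with one or two leaves (post), compound carried in non-phytotoxic solvent including surfactant.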

[2] = test system: soybean; experiment: Test C preemergence; format: in vivo, Glycine max
Summary of the method: (§2)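 Greenhouse pot test: preemergence application onto freshly seeded loam/sand mix, postemergence application onto seedlings (1–4 leaves, 2–18 cm) in peat-vermiculite substrate. Responses scored visually 13 to 15 days later relative to controls, where 0 means no effect and 100 means complete control; a dash indicates no result.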

[3] = test system: oat, wild; experiment: Test C postemergence; format: in vivo, Avena fatua; settings: for Plant response rating (scale of 0 to 100 where 0 is no effect and 100 is complete control), Oat, Wild: Postemergence, 31 g ai/ha, visually evaluated after 13 to 15 days; for Oat, Wild plant response rating / Plant response rating, Oat, Wild: postemergence; for Oat, Wild plant response rating: 62 g ai/ha, scale 0 to 100
Summary of the method: as §2

[4] = test system: wheat; experiment: Test A postemergence; format: in vivo, Triticum aestivum; settings: Postemergence
Summary of the method: as §1

[5] = test system: barnyardgrass; experiment: Test C preemergence; format: in vivo, Echinochloa crus-galli; settings: preemergence; for Plant response rating, Barnyardgrass: 125 g ai/ha, scale 0 to 100, 0 = no effect, 100 = complete control
Summary of the method: as §2

[6] = test system: morningglory; experiment: Test A postemergence; format: in vivo, Ipomoea spp.; settings: Postemergence
Summary of the method: as §1

[7] = test system: morningglory; experiment: Test C preemergence; format: in vivo, Ipomoea coccinea
Summary of the method: as §2

[8] = test system: morningglory; experiment: Test C postemergence; format: in vivo, Ipomoea coccinea; settings: for Plant response rating (scale of 0 to 100 where 0 is no effect and 100 is complete control), Morningglory: Postemergence, 31 g ai/ha, visually evaluated after 13 to 15 days; for Morningglory plant response rating / Plant response rating, Morningglory: postemergence; for Morningglory plant response rating: 62 g ai/ha, scale 0 to 100
Summary of the method: as §2

[9] = test system: lambsquarters; experiment: Test C preemergence; format: in vivo, Chenopodium album
Summary of the method: as §2

[10] = test system: johnsongrass; experiment: Test C postemergence; format: in vivo, Sorghum halepense; settings: for Plant response rating (scale of 0 to 100 where 0 is no effect and 100 is complete control), Johnsongrass: Postemergence, 31 g ai/ha, visually evaluated after 13 to 15 days; for Johnsongrass plant response rating / Plant response rating, Johnsongrass: postemergence; for Johnsongrass plant response rating: 62 g ai/ha, scale 0 to 100
Summary of the method: as §2

[11] = test system: chickweed; experiment: Test C postemergence; format: in vivo, Stellaria media; settings: for Plant response rating (scale of 0 to 100 where 0 is no effect and 100 is complete control), Chickweed: Postemergence, 31 g ai/ha, visually evaluated after 13 to 15 days; for Chickweed plant response rating / Plant response rating, Chickweed: postemergence; for Chickweed plant response rating: 62 g ai/ha, scale 0 to 100
Summary of the method: as §2

[12] = test system: velvetleaf; experiment: Test C postemergence; format: in vivo, Abutilon theophrasti; settings: postemergence; for Plant response rating, Velvetleaf: 250 g ai/ha, scale 0 to 100 (0 no effect, 100 complete control); for Velvetleaf plant response rating: scale 0 to 100
Summary of the method: as §2

[13] = test system: sedge, umbrella; experiment: Test B flood; format: in vivo, Cyperus difformis; settings: 250 g ai/ha, visual rating on 0 to 100 scale (0 no effect, 100 complete control), 13 to 15 days
Summary of the method: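 Paddy-water application: seedlings at 2-leaf stage, flood depth 3 cm maintained for the test duration. Evaluation after 13–15 days in the greenhouse by eye relative to controls; 0–100 scale.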

[14] = test system: velvetleaf; experiment: Test C preemergence; format: in vivo, Abutilon theophrasti
Summary of the method: as §2

[15] = 125 g ai/ha, 0 to 100 scale, 0 no effect, 100 complete control
[16] = 500 g ai/ha, 0 to 100 scale (0 no effect, 100 complete control)
[17] = preemergence, 31 g ai/ha, visual rating, scale 0 to 100 (0 no effect, 100 complete control), 13 to 15 days
[18] = preemergence, 62 g ai/ha, scale 0 to 100 (0 no effect, 100 complete control), 13 to 15 days
[19] = preemergence, 125 g ai/ha, 13 to 15 days, scale 0 to 100, 0 = no effect, 100 = complete control
[20] = preemergence, 250 g ai/ha, scale 0 to 100, 0 is no effect, 100 is complete control
[21] = 250 g ai/ha, scale 0 to 100 (0 no effect, 100 complete control)
[22] = 125 g ai/ha, scale 0 to 100, 0 no effect, 100 complete control
[23] = 31 g ai/ha, visual rating, scale 0 to 100 (0 no effect, 100 complete control), 13 to 15 days
[24] = 62 g ai/ha, scale 0 to 100 (0 no effect, 100 complete control), 13 to 15 days
[25] = 250 g ai/ha, scale 0 to 100, 0 is no effect, 100 is complete control
[26] = Preemergence, rate head not shown (block before 16 g ai/ha), scale 0 to 100

CCc1cc(C(=O)NCC(F)(F)F)nn1Cc1ccnc(SC(F)(F)F)c1 [Compound 214]
Velvetleaf plant response rating [1, 15]: 80
Velvetleaf plant response rating [1, 16]: 100
Soybean plant response rating [2, 17]: 60
Soybean plant response rating [2, 18]: 85
Plant response rating, Soybean [2, 19]: 90
Soybean plant response rating [2, 20]: 95
Plant response rating (scale of 0 to 100 where 0 is no effect and 100 is complete control), Oat, Wild [3]: 10
Oat, Wild plant response rating [3]: 15
Plant response rating, Oat, Wild [3, 21]: 40
Plant response rating, Oat, Wild [3, 22]: 15
Wheat plant response rating [4, 15]: 80
Wheat plant response rating [4, 16]: 90
Barnyardgrass plant response rating [5, 23]: 40
Barnyardgrass plant response rating [5, 24]: 95
Plant response rating, Barnyardgrass ([5]; 13 to 15 days): 100
Barnyardgrass plant response rating [5, 25]: 100
Morningglory plant response rating [6, 15]: 80
Morningglory plant response rating [6, 16]: 100
Morningglory plant response rating [7, 17]: 25
Morningglory plant response rating [7, 18]: 98
Plant response rating, Morningglory [7, 19]: 100
Morningglory plant response rating [7, 20]: 100
Plant response rating (scale of 0 to 100 where 0 is no effect and 100 is complete control), Morningglory [8]: 75
Morningglory plant response rating [8]: 95
Plant response rating, Morningglory [8, 21]: 85
Plant response rating, Morningglory [8, 22]: 85
Lambsquarters plant response rating [9, 17]: 100
Lambsquarters plant response rating [9, 18]: 100
Plant response rating, Lambsquarters [9, 19]: 100
Lambsquarters plant response rating [9, 20]: 100
Plant response rating (scale of 0 to 100 where 0 is no effect and 100 is complete control), Johnsongrass [10]: 0
Johnsongrass plant response rating [10]: 0
Plant response rating, Johnsongrass [10, 21]: 5
Plant response rating, Johnsongrass [10, 22]: 5
Plant response rating (scale of 0 to 100 where 0 is no effect and 100 is complete control), Chickweed [11]: 50
Chickweed plant response rating [11]: 55
Plant response rating, Chickweed [11, 21]: 85
Plant response rating, Chickweed [11, 22]: 70
Plant response rating, Velvetleaf [12]: 75
Velvetleaf plant response rating [12]: 20
Plant response rating, Sedge, Umbrella [13]: 95
Velvetleaf plant response rating [14, 17]: 35
Velvetleaf plant response rating [14, 18]: 100
Plant response rating, Velvetleaf [14, 19]: 100
Velvetleaf plant response rating [14, 20]: 100

CCc1cc(C(=O)NC2CC2)nn1Cc1ccnc(Br)c1 [Compound 220]
Velvetleaf plant response rating [1, 15]: 70
Velvetleaf plant response rating [1, 16]: 80
Plant response rating, Soybean [2, 26]: 10
Soybean plant response rating [2, 18]: 10
Plant response rating, Soybean [2, 19]: 35
Soybean plant response rating [2, 20]: 60
Plant response rating (scale of 0 to 100 where 0 is no effect and 100 is complete control), Oat, Wild [3]: 0
Oat, Wild plant response rating [3]: 5
Plant response rating, Oat, Wild [3, 21]: 15
Plant response rating, Oat, Wild [3, 22]: 10
Wheat plant response rating [4, 15]: 0
Wheat plant response rating [4, 16]: 90
Barnyardgrass plant response rating [5, 23]: 0
Barnyardgrass plant response rating [5, 24]: 15
Plant response rating, Barnyardgrass ([5]; 13 to 15 days): 35
Barnyardgrass plant response rating [5, 25]: 95
Morningglory plant response rating [6, 15]: 50
Morningglory plant response rating [6, 16]: 100
Plant response rating, Morningglory [7, 26]: 0
Morningglory plant response rating [7, 18]: 5
Plant response rating, Morningglory [7, 19]: 65
Morningglory plant response rating [7, 20]: 75
Plant response rating (scale of 0 to 100 where 0 is no effect and 100 is complete control), Morningglory [8]: 10
Morningglory plant response rating [8]: 55
Plant response rating, Morningglory [8, 21]: 70
Plant response rating, Morningglory [8, 22]: 40
Plant response rating, Lambsquarters [9, 26]: 60
Lambsquarters plant response rating [9, 18]: 98
Plant response rating, Lambsquarters [9, 19]: 100
Lambsquarters plant response rating [9, 20]: 100
Plant response rating (scale of 0 to 100 where 0 is no effect and 100 is complete control), Johnsongrass [10]: 0
Johnsongrass plant response rating [10]: 0
Plant response rating, Johnsongrass [10, 21]: 25
Plant response rating, Johnsongrass [10, 22]: 20
Plant response rating (scale of 0 to 100 where 0 is no effect and 100 is complete control), Chickweed [11]: 50
Chickweed plant response rating [11]: 55
Plant response rating, Chickweed [11, 21]: 80
Plant response rating, Chickweed [11, 22]: 60
Plant response rating, Velvetleaf [12]: 40
Velvetleaf plant response rating [12]: 45
Plant response rating, Sedge, Umbrella [13]: 70
Plant response rating, Velvetleaf [14, 26]: 5
Velvetleaf plant response rating [14, 18]: 20
Plant response rating, Velvetleaf [14, 19]: 75
Velvetleaf plant response rating [14, 20]: 100

CCc1cc(C(=O)NCC(F)(F)F)nn1Cc1ccnc(Br)c1 [Compound 224]
Velvetleaf plant response rating [1, 15]: 60
Velvetleaf plant response rating [1, 16]: 100
Plant response rating, Soybean [2, 26]: 10
Soybean plant response rating [2, 18]: 40
Plant response rating, Soybean [2, 19]: 65
Soybean plant response rating [2, 20]: 90
Plant response rating (scale of 0 to 100 where 0 is no effect and 100 is complete control), Oat, Wild [3]: 5
Oat, Wild plant response rating [3]: 5
Plant response rating, Oat, Wild [3, 21]: 10
Plant response rating, Oat, Wild [3, 22]: 10
Wheat plant response rating [4, 15]: 30
Wheat plant response rating [4, 16]: 90
Barnyardgrass plant response rating [5, 23]: 25
Barnyardgrass plant response rating [5, 24]: 40
Plant response rating, Barnyardgrass ([5]; 13 to 15 days): 100
Barnyardgrass plant response rating [5, 25]: 100
Morningglory plant response rating [6, 15]: 30
Morningglory plant response rating [6, 16]: 100
Plant response rating, Morningglory [7, 26]: 5
Morningglory plant response rating [7, 18]: 10
Plant response rating, Morningglory [7, 19]: 40
Morningglory plant response rating [7, 20]: 100
Plant response rating (scale of 0 to 100 where 0 is no effect and 100 is complete control), Morningglory [8]: 25
Morningglory plant response rating [8]: 20
Plant response rating, Morningglory [8, 21]: 65
Plant response rating, Morningglory [8, 22]: 25
Plant response rating, Lambsquarters [9, 26]: 100
Lambsquarters plant response rating [9, 18]: 100
Plant response rating, Lambsquarters [9, 19]: 100
Lambsquarters plant response rating [9, 20]: 100
Plant response rating (scale of 0 to 100 where 0 is no effect and 100 is complete control), Johnsongrass [10]: 20
Johnsongrass plant response rating [10]: 5
Plant response rating, Johnsongrass [10, 21]: 5
Plant response rating, Johnsongrass [10, 22]: 5
Plant response rating (scale of 0 to 100 where 0 is no effect and 100 is complete control), Chickweed [11]: 50
Chickweed plant response rating [11]: 55
Plant response rating, Chickweed [11, 21]: 90
Plant response rating, Chickweed [11, 22]: 55
Plant response rating, Velvetleaf [12]: 25
Velvetleaf plant response rating [12]: 20
Plant response rating, Sedge, Umbrella [13]: 90
Plant response rating, Velvetleaf [14, 26]: 40
Velvetleaf plant response rating [14, 18]: 65
Plant response rating, Velvetleaf [14, 19]: 100
Velvetleaf plant response rating [14, 20]: 100
